Measurements reported in patent publication US20230386615A1, “BINDING SITE IN TYPE 1 RYANODINE RECEPTOR” (The Trustees of Columbia University in the City of New York, priority 2021, published 2023).

Assays:
RyR1-W996A [1] = target: T1, RyR1-W996A (Oryctolagus cuniculus, UniProt P11716, W996A); assay type: binding, rabbit
T1 construct: Each fragment was subcloned into a full length RyR1 construct in pcDNA3.1 vector; expressed in transfected cells; host or cells: HEK293 (also 293T/17) cells, pcDNA3.1

RyR1 [2] = target: T2, RyR1 (Oryctolagus cuniculus, UniProt P11716); assay: S107 binding in the presence of increasing concentrations of ATP or ADP; design: species or system rabbit
T2 construct: from tissue; host or cells: rabbit skeletal muscle sarcoplasmic reticulum microsomes

RyR1-WT [3] = target: T3, RyR1-WT (Oryctolagus cuniculus, UniProt P11716); assay type: binding, rabbit
T3 construct: Each fragment was subcloned into a full length RyR1 construct in pcDNA3.1 vector; expressed in transfected cells; host or cells: HEK293 (also 293T/17) cells, pcDNA3.1

RyR1-W882A [4] = target: T4, RyR1-W882A (Oryctolagus cuniculus, UniProt P11716, W882A); details: radiolabeled ATP
[5] = test system: HEK293 cells expressing mutant RyR1; assay: Ca2+ imaging, caffeine-induced Ca2+ release; assay type: cell-based, rabbit; details: both mutants, 1 mM H2O2, 10 mM caffeine
RyR1-WT [6] = target: T3, RyR1-WT; assay: 3H-S107 binding, recombinant RyR1 HEK293 microsomes treated with PKA and H2O2; design: species or system rabbit
RyR1 [7] = target: T2, RyR1; assay: 3H-S107 radioligand binding, skeletal SR microsomes untreated or treated with PKA and H2O2; design: species or system rabbit
Experimental: For PKA-phosphorylated channel experiments, […] of microsomes were in vitro phosphorylated with 40 units of PKA catalytic subunit (SigmaAldrich, Cat #P2645) for 30 min at 30° C. in the presence of the following buffer: 50 mM Tris/PIPES pH 7.0, 8 mM MgCl2, 1 mM MgATP, and 1 mM EGTA. The samples were then spun by centrifuge for 10 min at 100,000×g. The resulting pellets were washed four times with wash buffer (300 mM sucrose, 10 mM imidazole, pH 7.4) and aliquots were frozen in liquid nitrogen and stored at −80° C. Oxidation of RyR1 was induced by incubating microsomes with 1 mM H2O2 for 30 min at room temperature prior to washing.
Titrative ^3H-S107 binding, performed in the absence and presence of 10 mM NaATP, was initiated by addition of ^3H-S107 (10-10,000 nM final concentration) to 0.1 mg skeletal sarcoplasmic reticulum (SR) microsomes in binding buffer (50 mM Tris-HCl, pH 7.5, 150 mM NaCl, 25 mM MgCl2). […] All samples were incubated at room temperature for 30 min ^3H-S107 binding was stopped by addition of ice-cold binding buffer prior to filtration through GF/B Whatman filters pre-equilibrated with 0.015% PE. Filters were washed 3 times with 5 mL of wash buffer (10 mM MOPS, 200 mM NaCl, pH 7.4), dried, and counted. Data were normalized to ^3H-ryanodine binding. […].

purified RyR1 = target: T5, purified RyR1 (Oryctolagus cuniculus, UniProt P11716); assay: 3H-S107 binding to purified RyR1 in absence and presence of 10 mM ATP; design: species or system rabbit
T5 construct: RyR1 was purified from rabbit skeletal muscle; from tissue

RyR1-W996A [8] = target: T1, RyR1-W996A; assay: 3H-S107 binding, recombinant RyR1 HEK293 microsomes treated with PKA and H2O2; design: species or system rabbit
RyR1-W882A [9] = target: T4, RyR1-W882A; assay: as above; design: Each fragment was subcloned into a full length RyR1 construct in pcDNA3.1 vector; expressed in transfected cells; host or cells: HEK293 (also 293T/17) cells, pcDNA3.1; species or system rabbit; details: W882A mutation
[10] = first section of TABLE 5, 10 mM ATP added
[11] = third section of TABLE 5, ADP in place of ATP

Nc1ncnc2c1ncn2[C@@H]1O[C@H](COP(=O)(O)OP(=O)(O)O)[C@@H](O)[C@H]1O [ADP, adenosine diphosphate]
ADP binding stoichiometry, in words (RyR1-W996A [1]; RyR1-W996A): greater than one molecule per channel
competition with S107 binding (RyR1 [2]): significant inhibitory effect
stoichiometry (RyR1-WT [3]): 12 molecules per channel

Nc1ncnc2c1ncn2[C@@H]1O[C@H](COP(=O)(O)OP(=O)(O)OP(=O)(O)O)[C@@H](O)[C@H]1O [ATP, adenosine triphosphate]
ATP binding, in words (RyR1-W996A [1]; W996A mutant): significantly reduced
ATP binding, in words (RyR1-W882A [4]): maintained, although slightly reduced

COc1ccc2c(c1)CN(Cc1ccc(C(=O)O)cc1)CCS2 [Compound 1, 4-[(7-methoxy-2,3-dihydro-1,4-benzothiazepin-4(5H)-yl)methyl]benzoic acid]
caffeine-induced calcium release after oxidation [5]: unaffected

COc1ccc2c(c1)CN(C)CCS2 [Compound S107]
Bmax (RyR1-WT [6]; [10]): 3.5 ± 0.3 mol S107/mol RyR1
Kd (RyR1-WT [6]; [10]): 0.2 ± 0.011 µM
Bmax (RyR1-WT [6]; [11]): 3.6 ± 0.3 mol S107/mol RyR1
Kd (RyR1-WT [6]; [11]): 0.188 ± 0.012 µM
Bmax (RyR1 [7]; PKA/H2O2 treated microsomes): 3.7 ± 0.2 mol S107/mol RyR1
Kd (RyR1 [7]; PKA/H2O2 treated microsomes): 0.155 ± 0.009 µM
Bmax (RyR1 [7]; Untreated microsomes): 0.4 ± 0.1 mol S107/mol RyR1
Kd (RyR1 [7]; Untreated microsomes): 0.15 ± 0.007 µM
Bmax (purified RyR1; 10 mM ATP): 3.0 ± 0.2 mol S107/mol RyR1
Kd (purified RyR1; 10 mM ATP): 0.152 ± 0.007 µM
Bmax (purified RyR1; No ATP): 0.4 ± 1.0 mol S107/mol RyR1
Kd (purified RyR1; No ATP): 0.147 ± 0.006 µM
Kd (RyR1-W996A [8]): 0.25 ± 0.01 µM
Bmax (RyR1-W996A [8]; RyR1-W996A, third section of TABLE 5, ADP in place of ATP): 2.0 ± 0.2 mol S107/mol RyR1
3H-S107 binding to the channel, in words (RyR1-W882A [9]): abolished
